tested on: Aβ42; assay: In vitro cell screening assay; quantification of Aβ (1-42) peptide by sandwich ELISA; format: cell-based; conditions: Human neuroglioma H4 cells stably expressing human wild type APP751; compounds 0.003-10 μM, incubated overnight (16-18 h); Aβ42 in supernatant by sandwich ELISA; normalized to DMSO and DAPT; read-out: Aβ42 H4 Prot Fre IC50
In short: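 Stable H4 neuroglioma line expressing human wild-type APP751; compounds 0.003-10 μM (0.33% DMSO final) added in Pro293 medium 6 h after plating, incubated overnight (16-18 h) at 37 °C. Secreted Aβ42 measured in supernatant by C-terminal-capture sandwich ELISA with 4G8-HRP detection; IC50 by sigmoidal fit, normalized to DMSO and DAPT.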

Row | SMILES | IC50
1 | COc1nc(C2=NOC(C)C(c3cccc(Cl)c3)N2)ccc1-n1cnc(C)c1 (single isomer, unassigned) [Example 41A, 5-(3-chlorophenyl)-3-(6-methoxy-5-(4-methyl-1H-imidazol-1-yl)pyridin-2-yl)-6-methyl-5,6-dihydro-4H-1,2,4-oxadiazine] | 1430 nM
2 | COc1cc(C2=NOC(C)C(c3ccc(Cl)cc3)N2)ccc1-n1cnc(C)c1 (single isomer, unassigned; (-)) [Example 43A, (−)-5-(4-chlorophenyl)-3-(3-methoxy-4-(4-methyl-1H-imidazol-1-yl)phenyl)-6-methyl-5,6-dihydro-4H-1,2,4-oxadiazine] | > 3000 nM
3 | COc1nc(C2=NOC(C)C(c3cc4ccc(Cl)cc4o3)N2)ccc1-n1cnc(C)c1 (single isomer, unassigned) [Example 46D, 5-(6-chlorobenzofuran-2-yl)-3-(6-methoxy-5-(4-methyl-1H-imidazol-1-yl)pyridin-2-yl)-6-methyl-5,6-dihydro-4H-1,2,4-oxadiazine] | 2.8 nM
4 | COc1nc(C2=NOC3(CC3)C(c3ccc(Cl)cc3)N2)ccc1-n1cnc(C)c1 (single isomer, unassigned; (-)) [Example 25A, (−)-8-(4-chlorophenyl)-6-[6-methoxy-5-(4-methyl-1H-imidazol-1-yl)pyridin-2-yl]-4-oxa-5,7-diazaspiro[2.5]oct-5-ene] | 2600 nM
5 | COc1nc(C2=NOC(C)C(c3c4n(c5ccc(Cl)cc35)CCOC4)N2)ccc1-n1cnc(C)c1 (single isomer, unassigned; (-)) [Example 50B, (−)-8-chloro-10-(3-(6-methoxy-5-(4-methyl-1H-imidazol-1-yl)pyridin-2-yl)-6-methyl-5,6-dihydro-4H-1,2,4-oxadiazin-5-yl)-3,4-dihydro-1H-[1,4] oxazino [4,3-a] indole] | 27 nM
6 | COc1nc(C2=NOC(C)C(c3cn(C)c4ccc(F)c(F)c34)N2)ccc1-n1cnc(C)c1 (single isomer, unassigned; (+)) [Example 52B, (+)-5-(4,5-difluoro-1-methyl-1H-indol-3-yl)-3-(6-methoxy-5-(4-methyl-1H-imidazol-1-yl)pyridin-2-yl)-6-methyl-5,6-dihydro-4H-1,2,4-oxadiazine] | 2.9 nM
7 | COc1nc(C2=NOCC(c3c4n(c5ccc(Cl)cc35)CCOC4)N2)ccc1-n1cnc(C)c1 (single isomer, unassigned; (-)) [Example 28B, (−)-8-chloro-10-(3-(6-methoxy-5-(4-methyl-1H-imidazol-1-yl)pyridin-2-yl)-5,6-dihydro-4H-1,2,4-oxadiazin-5-yl)-3,4-dihydro-1H-[1,4]oxazino[4,3-a]indole] | 61.8 nM
8 | COc1nc(C2=NOC(C3CC3)C(c3cn(C)c4ncc(Cl)cc34)N2)ccc1-n1cnc(C)c1 (stereo not drawn) [57B or 58B, (−)-(cis)-5-(5-chloro-1-methyl-1H-pyrrolo[2,3-b]pyridin-3-yl)-6-cyclopropyl-3-(6-methoxy-5-(4-methyl-1H-imidazol-1-yl)pyridin-2-yl)-5,6-dihydro-4H-1,2,4-oxadiazine] | 6.7 nM
9 | COc1nc(C2=NO[C@@H](C)[C@@H](c3ccc(Cl)cc3)N2)ccc1-n1cnc(C)c1 [Example 18A, (−)-(5R,6S)-5-(4-chlorophenyl)-3-[6-methoxy-5-(4-methyl-1H-imidazol-1-yl)pyridin-2-yl]-6-methyl-5,6-dihydro-4H-1,2,4-oxadiazine] | 2220 nM
10 | COc1nc(C2=NOC(C)C(c3cn(C)c4ncc(Cl)cc34)N2)ccc1-n1cnc(C)c1 (single isomer, unassigned; (-)) [Example 54A, (−)-5-(5-chloro-1-methyl-1H-pyrrolo [2,3-b]pyridin-3-yl)-3-(6-methoxy-5-(4-methyl-1H-imidazol-1-yl)pyridin-2-yl)-6-methyl-5,6-dihydro-4H-1,2,4-oxadiazine] | 190 nM

— patent publication US20170050980A1, “OXADIAZINE COMPOUNDS AND METHODS OF USE THEREOF” (FORUM Pharmaceuticals Inc., priority 2015, published 2017)
